Test results published in US20220220099A1, “BENZAMIDE COMPOUND, AND HERBICIDE” (Nippon Soda Co., Ltd., priority 2019, published 2022).

test system: Apera spica-venti; assay: Test Example 2: spraying treatment on stems and leaves, herbicidal rate; format: in vivo; settings: spray amount of 16 g, three weeks later
Experimental: Emulsion for testing was prepared according to the preparation method described in Test Example 1.
A 150 cm^2 pot was filled with soil, and seeds of Avena sativa, Lolium multiflorum and Apera spica-venti were sowed on the surface layer, and after the soil was covered lightly, the Avena sativa, Lolium multiflorum and Apera spica-venti were grown in a greenhouse. At the point in time when Avena sativa was grown to a plant height of 16 to 20 cm, Lolium multiflorum was grown to a plant height of 10 to 14 cm, and Apera spica-venti was grown to a plant height of 2 to 4 cm, the emulsion for testing was diluted in such a way as to have a predetermined amount of an active ingredient and was sprayed on the leaves and stems in a spray amount of water of 250 L per hectare with a small-sized atomizer.
Three weeks later, the weight of a living weed above the ground was measured for each weed in the nontreated zone and in the treated zone to calculate a herbicidal rate by the following calculation formula.
Herbicidal rate (%)=(weight of living weed above ground in nontreated zone−weight of living weed above ground in treated zone)/(weight of living weed above ground in nontreated zone)×100 […]

Structure (SMILES)	herbicidal activity (Apera spica-venti, follows Table 10)
O=C(Nc1nnnn1CC(F)(F)F)c1ccc(C(F)(F)F)c2c1CCCS2 [c-6]	≥ 80%

test system: not given; assay: not given; settings: not given

Structure (SMILES)	melting point
Cn1nnnc1NC(=O)c1ccc(C(F)(F)F)c2c1CCCS2 [a-37, N-(1-Methyl-1H-tetrazol-5-yl)-8-(trifluoromethyl)thiochromane-5-carboxamide]	166 to 167 °C
Cn1nnnc1NC(=O)c1ccc(C(F)(F)F)c2c1C(F)CCS2 (stereo not drawn) [b-11]	132 to 135 °C
Cn1nnnc1NC(=O)c1ccc(C(F)(F)F)c2c1C(O)CS2(=O)=O (stereo not drawn) [b-3]	202 to 205 °C
COC1CSc2c(C(F)(F)F)ccc(C(=O)Nc3nnnn3C)c2C1 (stereo not drawn) [b-9]	168 to 170 °C
COC1CS(=O)(=O)c2c(C(F)(F)F)ccc(C(=O)Nc3nnc(C)o3)c21 (stereo not drawn) [b-5]	206 to 207 °C
COCC1Cc2c(C(=O)Nc3nnnn3C)ccc(C(F)(F)F)c2S1(=O)=O (stereo not drawn) [b-2]	215 to 217 °C
CCOC1CS(=O)(=O)c2c(C(F)(F)F)ccc(C(=O)Nc3nnnn3C)c21 (stereo not drawn) [b-1]	209 to 211 °C
Cn1nnnc1NC(=O)c1ccc(C(F)(F)F)c2c1C(F)CCS2(=O)=O (stereo not drawn) [b-10]	220 to 223 °C
Cn1nnnc1NC(=O)c1ccc(C(F)(F)F)c2c1C(Br)CS2(=O)=O (stereo not drawn) [b-4]	209 to 211 °C
COC1Cc2c(C(=O)Nc3nnnn3C)ccc(C(F)(F)F)c2S(=O)(=O)C1 (stereo not drawn) [b-8]	226 to 228 °C

More lines, now with the values ahead:

melting point	Structure (SMILES)
182 to 183 °C	Cc1nnc(NC(=O)c2ccc(C(F)(F)F)c3c2CCC(C)S3)o1 (stereo not drawn) [b-14]
270 to 271 °C	CC1CCc2c(C(=O)Nc3nnnn3C)ccc(C(F)(F)F)c2S1(=O)=O (stereo not drawn) [b-12]
110 to 112 °C	Cn1nnnc1NC(=O)c1ccc(C(F)(F)F)c2c1CCCS2(=O)=Nc1ccccc1 (stereo not drawn) [b-23]
123 to 124 °C	COc1ccc(N=S2(=O)CCCc3c(C(=O)Nc4nnnn4C)ccc(C(F)(F)F)c32)cc1 (stereo not drawn) [b-22]
113 to 114 °C	Cn1nnnc1NC(=O)c1ccc(C(F)(F)F)c2c1CCCS2(=O)=Nc1ccc(Cl)cc1 (stereo not drawn) [b-24]
117 to 120 °C	CC1CCc2c(C(=O)Nc3nnnn3C)ccc(C(F)(F)F)c2/S1=N/C#N (stereo not drawn) [b-21]
151 to 153 °C	Cn1nnnc1NC(=O)c1ccc(C(F)(F)F)c2c1CCCS2(=O)=NC#N (stereo not drawn) [b-19]
